Source: publication PMC3758303 (PLoS ONE, 2013)

Legend:
RSc-JRN/35B cells = experiment: Viability of RSc-JRN/35B cells (WST-1, trypan blue cell counting); type: cell-based, human; details: 10 µM
Description: The WST-1 cell proliferation assay was performed as described previously. Briefly, The cells were plated onto 96-well plates (1×10^3 cells per well) in triplicate and then treated with each reagent at several concentrations for 72 hrs. After treatment, the cells were subjected to the WST-1 cell proliferation assay (Takara Bio, Otsu, Japan) according to the manufacturer’s protocol. This assay is based on the enzymatic cleavage of the tetrazolium salt WST-1 to formazan by cellular mitochondrial dehydrogenases present in viable cells. Therefore, there are […] the value of the WST-1 assay becomes zero. The experiments were performed at least in triplicate. From the assay results, the 50% cytotoxic concentration (CC50) of each reagent was determined.
We next examined whether N-89 and N-251 worked in an HCV production system using HCV-JFH-1 strain (genotype 2a). […] To clarify whether anti-HCV activity depends on the difference of genotype or assay model, we evaluated the activities of N-89 and N-251 using RSc-JRN/35B [Ikeda et al., submitted] cells harboring a subgenomic HCV-JFH-1 replicon as an additional assay.

Plasmodium falciparum = system: Plasmodium falciparum; parameters: method as in PMID 11428929, PMID 17273878, PMID 12723958; details: cited from earlier work

With `OCCCCCCC1COOC2(CCCCCCCCCCC2)OOC1` [N-251, 6-(1,2,6,7-tetraoxaspiro[7.11]nonadec-4-yl)hexan-1-ol] the “relative value of WST-1” value (RSc-JRN/35B cells) was “almost became zero”.
For `C1CCCCCC2(CCCCC1)OOCCCOO2` [N-89, 1,2,6,7-Tetraoxaspiro[7.11]nonadecane], the “antimalarial activity in vitro” value (Plasmodium falciparum) is listed as “potent antimalarial activity”.
